Data published in US6060468A, “N-substituted azaheterocyclic compounds” (Novo Nordisk A/S, priority 1996, dated 2000).

Test system: histamine induced paw oedema
Assay: Histamine induced paw oedema (rat)
Format: in vivo, male Sprague-Dawley rats
Conditions: 1.0 mg/kg, intraperitoneal, 15 min before anaesthetics; histamine 50 microliter 3 mg/ml in right hind paw; swelling after 20 min
Experimental: I. Histamine Induced Paw Oedema The rat histamine paw oedema test was performed essentially as described by Amann et al. (Europ. J. Pharmacol. 279, 227-231, 1995). In brief 250-300 g male Sprague-Dawley rats were anaesthetized with pentobarbital sodium, and placed on a 32 degree (Celsius) heated table. Ten minutes later histamine (50 micoliter, 3 mg/ml) was injected in the right hind paw and 20 minutes hereafter the paw swelling was determined by water plethysmography (Ugo Basile). Test compounds were administered intraperitoneally at 15 minutes before the anaesthetics. Values for inhibition of histamine induced oedema response for some representative compounds are recorded in table 1.

SMILES: O=C(O)[C@@H]1CCCN(CCOC2Cc3ccccc3Sc3ccccc32)C1 (stereo partly drawn) [Example 1, 1-(2-(10,11-Dihydrodibenzo[b,f]thiepin-10-yloxy)-1-ethyl)-(3R)-piperidinecarboxylic acid acetate]
- % Oedema inhibition (inhibition of histamine induced oedema response): 37%

SMILES: Cc1ccc2c(c1)CC(OCCN1CCCC(C(=O)O)C1)c1ccccc1S2.O=C(O)C(=O)O (centres unmarked) [Example 5, 1-(2-(2-Methyl-10,11-dihydrodibenzo[b,f]thiepin-10-yloxy)-1-ethyl)-3-piperidinecarboxylic acid hydrogen oxalate]
- % Oedema inhibition (inhibition of histamine induced oedema response): 49%
